Source: patent US4818753A, “Synthesis and method of use for 2, 4 diaminoquinazoline” (SRI International, priority 1987, dated 1989)
Values after ≈ are worked out from the molar mass of the structure shown. Like-named read-outs stand apart in the source and are kept apart here.

Tests used:
Plasmodium species = conditions: Hariri 1976; cited from earlier work
Cryptococcus neoformans [1] = conditions: Hariri 1976, cited from earlier work
Cryptococcus neoformans [2] = conditions: Hariri 1976; cited from earlier work
Candida albicans (14053) = assay: Broth dilution assay, F2; assay type: cell-based; conditions: for MIC: Table 1, F2, Sabouraud Dextrose Broth pH 5.5, read-out: Minimum Inhibitory Concentration (S, fungistatic); for MFC: Table 1, F2, Sabouraud Dextrose Broth pH 5.5, read-out: Minimum Lethal Concentration (C, fungicidal)
Procedure: (§1) Both broth dilution and agar dilution assays were used to assess the antifungal activity of the compounds of the invention. The cultures were maintained in Sabouraud dextrose broth (SDB) and diluted with […]. 2.5 l of SDB was prepared and distributed into sterile vessels as follows: 49 ml into 1 vessel, 27 ml into 3 vessels, 45 ml into 2 vessels.
(§2) Five mg/ml concentration of each compound was prepared using DMSO as the solvent; warming and sonication were necessary to dissolve each compound completely. The compounds were then diluted in SDB according to the following protocol:
(§3) 5. 1 ug/ml--5 ml (3)+45 ml SDB
(§4) The compound at each concentration in SDB was then dispensed into 6 tubes each containing 4 ml […]. Controls (without any compound) were also prepared to insure that the solvent itself was not fungicidal or fungistatic.
(§5) Cultures were grown in SDB for 24 h at 30° C. C. albicans and C. neoformans were diluted 1:10 in SDB before inoculation. Inoculation volume for yeasts was 2 drops of diluted cells per tube. The fungal cultures were homogenized before inoculation. The same volume was added, but without dilution. All tubes were incubated at room temperature on a rotating wheel. After 16 h of incubation at room temperature, the fungistatic assay was set up on agar plates. […] Yeasts were inoculated onto SDA (the corresponding agar) plates and fungi onto mycosel agar plates. These plates were then incubated at room temperature.

Candida albicans (10231) = assay: Broth dilution assay, F1; assay type: cell-based
Procedure: as §1, §2, §3, §4, §5

[3] = tested on: Trichophyton mentagrophytes (11481); assay: Broth dilution assay, F6; assay type: cell-based
Procedure: as §1, §2, §3, §4, §5

[4] = tested on: Microsporum gypseum (14683); assay: Broth dilution assay, F12; assay type: cell-based; conditions: Nannizzia gypsea
Procedure: as §1, §2, §3, §4, §5

[5] = tested on: Penicillium citrinum (9849); assay: Broth dilution assay, F19; assay type: cell-based; conditions: for MIC: Table 1, F19, Sabouraud Dextrose Broth pH 5.5, read-out: Minimum Inhibitory Concentration (S, fungistatic); for MFC: Table 1, F19, Sabouraud Dextrose Broth pH 5.5, read-out: Minimum Lethal Concentration (C, fungicidal)
Procedure: as §1, §2, §3, §4, §5

[6] = tested on: Epidermophyton floccosum (15693); assay: Broth dilution assay, F4; assay type: cell-based; conditions: for MIC: Table 1, F4, Sabouraud Dextrose Broth pH 5.5, read-out: Minimum Inhibitory Concentration (S, fungistatic)
Procedure: as §1, §2, §3, §4, §5

[7] = tested on: Cryptococcus neoformans (13690); assay: Broth dilution assay, F3; assay type: cell-based
Procedure: as §1, §2, §3, §4, §5

fungi = assay: Broth dilution assay, whole panel; assay type: cell-based; conditions: Tables 1 and 2
Procedure: as §1, §2, §3, §4
as §5, with “These plates were then incubated at room temperature.” left out

[8] = Table 1, F1, Sabouraud Dextrose Broth pH 5.5, read-out: Minimum Inhibitory Concentration (S, fungistatic)
[9] = Table 1, F1, Sabouraud Dextrose Broth pH 5.5, read-out: Minimum Lethal Concentration (C, fungicidal)
[10] = Table 1, F6, Sabouraud Dextrose Broth pH 5.5, read-out: Minimum Inhibitory Concentration (S, fungistatic)
[11] = Table 1, F6, Sabouraud Dextrose Broth pH 5.5, read-out: Minimum Lethal Concentration (C, fungicidal)
[12] = Table 1, Sabouraud Dextrose Broth pH 5.5, read-out: Minimum Inhibitory Concentration (S, fungistatic)
[13] = Table 1, Sabouraud Dextrose Broth pH 5.5, read-out: Minimum Lethal Concentration (C, fungicidal)
[14] = Table 1, F4, Sabouraud Dextrose Broth pH 5.5, read-out: Minimum Lethal Concentration (C, fungicidal)
[15] = Table 1, F3, Sabouraud Dextrose Broth pH 5.5, read-out: Minimum Inhibitory Concentration (S, fungistatic)
[16] = Table 1, F3, Sabouraud Dextrose Broth pH 5.5, read-out: Minimum Lethal Concentration (C, fungicidal)

Nc1nc(N)c2cc(NC(=O)Cc3ccc(Cl)c(Cl)c3)ccc2n1 [2,4-diamino-6-(2-(3,4-dichlorophenyl)acetamido)quinazoline]
activity against Plasmodium (Plasmodium species): no activity
minimum inhibitory concentration (MIC) (Cryptococcus neoformans [1]; C. neoformans): 6 to 8 µg/mL
in vitro activity (Cryptococcus neoformans [1]; in vitro): active in vitro and in vivo
in vivo activity (Cryptococcus neoformans [2]): active in vitro and in vivo

CCCCc1ccc2nc(N)nc(N)c2c1C [--CH2 (CH2)2 CH3]
MIC (Candida albicans (14053)): 100 µg/mL (≈ 434 µM)
MFC (Candida albicans (14053)): 100 µg/mL (≈ 434 µM)
MIC (Candida albicans (10231); [8]): 100 µg/mL (≈ 434 µM)
MFC (Candida albicans (10231); [9]): > 100 µg/mL
MIC [3, 10]: > 30 µg/mL
MFC [3, 11]: > 30 µg/mL
MIC [4, 12]: 30 µg/mL (≈ 130 µM)
MFC [4, 13]: > 30 µg/mL
MIC [5]: 100 µg/mL (≈ 434 µM)
MFC [5]: > 100 µg/mL
MIC [6]: 10 µg/mL (≈ 43.4 µM)
MFC [6, 14]: 30 µg/mL (≈ 130 µM)
MIC [7, 15]: 30 µg/mL (≈ 130 µM)
MFC [7, 16]: 30 µg/mL (≈ 130 µM)

CCCCCc1ccc2nc(N)nc(N)c2c1C [--CH2 (CH2)3 CH 3]
MIC (Candida albicans (14053)): 100 µg/mL (≈ 409 µM)
MFC (Candida albicans (14053)): 100 µg/mL (≈ 409 µM)
MIC (Candida albicans (10231); [8]): 100 µg/mL (≈ 409 µM)
MFC (Candida albicans (10231); [9]): 100 µg/mL (≈ 409 µM)
MIC [3, 10]: 30 µg/mL (≈ 123 µM)
MFC [3, 11]: > 30 µg/mL
MIC [4, 12]: 30 µg/mL (≈ 123 µM)
MFC [4, 13]: > 30 µg/mL
MIC [5]: 100 µg/mL (≈ 409 µM)
MFC [5]: 100 µg/mL (≈ 409 µM)
MIC [6]: 10 µg/mL (≈ 40.9 µM)
MFC [6, 14]: 30 µg/mL (≈ 123 µM)
MIC [7, 15]: 10 µg/mL (≈ 40.9 µM)
MFC [7, 16]: 30 µg/mL (≈ 123 µM)

CCCCCCc1ccc2nc(N)nc(N)c2c1C [--CH2 (CH2)4 CH3, 2,4-Diamino-5-methyl-6-n-hexylquinazoline]
MIC (Candida albicans (14053)): 30 µg/mL (≈ 116 µM)
MFC (Candida albicans (14053)): 30 µg/mL (≈ 116 µM)
MIC (Candida albicans (10231); [8]): 30 µg/mL (≈ 116 µM)
MFC (Candida albicans (10231); [9]): 30 µg/mL (≈ 116 µM)
MFC (Candida albicans (10231); Table 2, F1, Sabouraud Dextrose Broth pH 5.5, read-out: C Fungicidal): > 100 µg/mL
MIC (Candida albicans (10231); Table 2, F1, Sabouraud Dextrose Broth pH 5.5, read-out: S Fungistatic): 30 µg/mL (≈ 116 µM)
fungicidal and fungistatic activity in words (fungi): best fungicidal and fungistatic activity
MIC [3, 10]: 30 µg/mL (≈ 116 µM)
MFC [3, 11]: > 30 µg/mL
MFC ([3]; Table 2, F6, Sabouraud Dextrose Broth pH 5.5, read-out: C Fungicidal): 30 µg/mL (≈ 116 µM)
MIC ([3]; Table 2, F6, Sabouraud Dextrose Broth pH 5.5, read-out: S Fungistatic): 30 µg/mL (≈ 116 µM)
MIC [4, 12]: 10 µg/mL (≈ 38.7 µM)
MFC [4, 13]: 30 µg/mL (≈ 116 µM)
MFC ([4]; Table 2, Sabouraud Dextrose Broth pH 5.5, read-out: C Fungicidal): 100 µg/mL (≈ 387 µM)
MIC ([4]; Table 2, Sabouraud Dextrose Broth pH 5.5, read-out: S Fungistatic): 30 µg/mL (≈ 116 µM)
MIC [5]: 100 µg/mL (≈ 387 µM)
MFC [5]: 100 µg/mL (≈ 387 µM)
MIC [6]: 3 µg/mL (≈ 11.6 µM)
MFC ([6]; Table 2, F4, Sabouraud Dextrose Broth pH 5.5, read-out: C Fungicidal): 30 µg/mL (≈ 116 µM)
MIC [7, 15]: 3 µg/mL (≈ 11.6 µM)
MFC [7, 16]: 10 µg/mL (≈ 38.7 µM)
MFC ([7]; Table 2, F3, Sabouraud Dextrose Broth pH 5.5, read-out: C Fungicidal): 3 µg/mL (≈ 11.6 µM)
MIC ([7]; Table 2, F3, Sabouraud Dextrose Broth pH 5.5, read-out: S Fungistatic): 3 µg/mL (≈ 11.6 µM)

CCCc1ccc2nc(N)nc(N)c2c1C [--CH2 CH2 CH3]
MIC (Candida albicans (14053)): > 100 µg/mL
MFC (Candida albicans (14053)): > 100 µg/mL
MIC (Candida albicans (10231); [8]): > 100 µg/mL
MFC (Candida albicans (10231); [9]): > 100 µg/mL
MIC [3, 10]: > 30 µg/mL
MFC [3, 11]: > 30 µg/mL
MIC [4, 12]: > 30 µg/mL
MFC [4, 13]: > 30 µg/mL
MIC [5]: > 100 µg/mL
MFC [5]: > 100 µg/mL
MIC [6]: 30 µg/mL (≈ 139 µM)
MFC [6, 14]: > 30 µg/mL
MIC [7, 15]: > 100 µg/mL
MFC [7, 16]: > 100 µg/mL

Cc1c(CCC(C)C)ccc2nc(N)nc(N)c12 [--CH2 CH2 CH(CH3)2]
MIC (Candida albicans (14053)): 100 µg/mL (≈ 409 µM)
MFC (Candida albicans (14053)): 100 µg/mL (≈ 409 µM)
MIC (Candida albicans (10231); [8]): 100 µg/mL (≈ 409 µM)
MFC (Candida albicans (10231); [9]): 100 µg/mL (≈ 409 µM)
MIC [3, 10]: > 30 µg/mL
MFC [3, 11]: > 30 µg/mL
MIC [4, 12]: 30 µg/mL (≈ 123 µM)
MFC [4, 13]: > 30 µg/mL
MIC [5]: 100 µg/mL (≈ 409 µM)
MFC [5]: > 100 µg/mL
MIC [6]: 10 µg/mL (≈ 40.9 µM)
MFC [6, 14]: 10 µg/mL (≈ 40.9 µM)
MIC [7, 15]: 10 µg/mL (≈ 40.9 µM)
MFC [7, 16]: 30 µg/mL (≈ 123 µM)

Cc1cccc2nc(N)nc(N)c12 [H]
MIC (Candida albicans (14053)): > 100 µg/mL
MFC (Candida albicans (14053)): > 100 µg/mL
MIC (Candida albicans (10231); [8]): > 100 µg/mL
MFC (Candida albicans (10231); [9]): > 100 µg/mL
MIC [3, 10]: > 30 µg/mL
MFC [3, 11]: > 30 µg/mL
MIC [4, 12]: > 30 µg/mL
MFC [4, 13]: > 30 µg/mL
MIC [5]: > 100 µg/mL
MFC [5]: > 100 µg/mL
MIC [6]: > 30 µg/mL
MFC [6, 14]: > 30 µg/mL
MIC [7, 15]: > 100 µg/mL
MFC [7, 16]: > 100 µg/mL
